From ChEMBL document CHEMBL1221225, “A small molecule that directs differentiation of human ESCs into the pancreatic lineage” (Nat Chem Biol, 2009)
The source made the active and inactive calls. The calls are words filed in the database; no cut-off is given here.

Experiments:
[1] = tested on: HUES8; experiment: Induction of human HUES8 cell differentiation into pancreatic progenitor cell assessed as increase in NGN3 mRNA expression at 300 nM after 4 days by RT-PCR analysis cells pregrown in medium containing Wnt, activin, FGF10, KAAD-cyclopamine and retinoic acid; assay type: functional, cell-based
[2] = species on record: Homo sapiens; experiment: Induction of human HUES4 cell differentiation into pancreatic progenitor cells assessed as increase in Pdx1-expression in cells pregrown with medium containing Wnt, activin, FGF10, KAAD-cyclopamine and retinoic acid at 300 nM after 4 days by Opera high content screening system relative to control; assay type: functional, cell-based
[3] = Induction of human HUES8 cell differentiation into pancreatic progenitor cell assessed as NKX6.1 expression in cells pregrown in medium containing Wnt, activin, FGF10, KAAD-cyclopamine and retinoic acid at 300 nM after 4 days by immunocytochemistry relative to control; assay type: functional
[4] = Effect on glucagon expression in human HUES8 insulin-producing cells at 300 nM after 4 days by immunocytochemistry (reference value: 75.2 +/- 9.1%); assay type: functional
[5] = species on record: Mus musculus; experiment: Induction of mouse AV3 Pdx1-expressing cell differentiation assessed as increase in Nkx6.1 expression at 300 nM after 6 days by immunohistochemistry pretreated with 1000 ng/ml recombinant mouse Nodal for 5 days; assay type: functional
[6] = tested on: Heart; experiment: Induction of Troponin T expression in CD1 nude mouse heart at 300 nM after 4 days by fluorescent confocal microscopy; assay type: functional, tissue-based
[7] = Induction of human HUES9 cell differentiation into pancreatic lineage assessed as increase in Pdx1-expression in cells pregrown with medium containing Wnt, activin, FGF10, KAAD-cyclopamine and retinoic acid at 1 uM after 1 day by Opera high content screening system; assay type: functional
[8] = Induction of human HUES8 differentiation into pancreatic lineage assessed as increase in DBA-positive exocrine cells at 300 nM after 4 days by RT-PCR (Rvb (DMSO) = 0%); assay type: functional
[9] = tested on: AV3; experiment: Induction of mouse AV3 cell differentiation into pancreatic lineage assessed as increase in Pdx1 mRNA expression at 300 nM after 6 days by RT-PCR analysis pretreated with 1000 ng/ml recombinant mouse Nodal for 5 days; assay type: functional, cell-based
[10] = tested on: AV3; experiment: Induction of mouse AV3 cell differentiation into pancreatic lineage assessed as increase in Foxa2 mRNA expression at 300 nM after 6 days by RT-PCR analysis pretreated with 1000 ng/ml recombinant mouse Nodal for 5 days; assay type: functional, cell-based
[11] = species on record: Mus musculus; experiment: Induction of nestin expression in CD1 nude mouse ectoderm at 300 nM after 4 days by fluorescent confocal microscopy; assay type: functional, tissue-based
[12] = species on record: Homo sapiens; experiment: Induction of C-peptide expression in human HUES8 insulin-producing cells at 300 nM after 4 days by immunocytochemistry relative to control; assay type: functional
[13] = tested on: HUES2; experiment: Induction of human HUES2 cell differentiation into pancreatic progenitor cells assessed as increase in Pdx1-expression in cells pregrown with medium containing Wnt, activin, FGF10, KAAD-cyclopamine and retinoic acid at 300 nM after 4 days by Opera high content screening system relative to control; assay type: functional, cell-based
[14] = species on record: Homo sapiens; experiment: Induction of human HUES8 differentiation into definitive endoderm assessed as expression of SOX17 at 300 nM after 3 days by immunocytochemistry; assay type: functional
[15] = Induction of human GTE cells differentiation into pancreatic lineage assessed as increase in Pdx1-expressing cells at 300 nM after 4 days by immunocytochemistry pregrown in medium with FGF10 and KAAD-cyclopamine (Rvb (DMSO) = 2.8+/-0.6%); assay type: functional
[16] = Cytotoxicity against human HUES9 cells at 300 nM; assay type: cell-based; details: hues9, 0.3 µM
[17] = tested on: AV3; experiment: Induction of mouse AV3 cell differentiation into pancreatic lineage assessed as increase in ptf1a mRNA expression at 300 nM after 6 days by RT-PCR analysis pretreated with 1000 ng/ml recombinant mouse Nodal for 5 days; assay type: functional, cell-based
[18] = species on record: Mus musculus; experiment: Induction of SOX1 expression in CD1 nude mouse ectoderm at 300 nM after 4 days by fluorescent confocal microscopy; assay type: functional, tissue-based
[19] = Induction of human HUES8 differentiation into pancreatic lineage assessed as increase in amylase/CPA double-positive exocrine cells at 300 nM after 4 days by RT-PCR (reference value: 1.6+/-0.2%); assay type: functional
[20] = tested on: Heart; experiment: Induction of ISL1 expression in CD1 nude mouse heart at 300 nM after 4 days by fluorescent confocal microscopy; assay type: functional, tissue-based
[21] = tested on: Lung; experiment: Induction of SOX2 expression in CD1 nude mouse lung at 300 nM after 4 days by fluorescent confocal microscopy; assay type: functional, tissue-based
[22] = species on record: Homo sapiens; experiment: Induction of Pdx1 expression in human HUES8 insulin-producing cells at 300 nM after 4 days by immunocytochemistry relative to control; assay type: functional
[23] = species on record: Homo sapiens; experiment: Induction of C-peptide release in human HUES8 insulin-producing cell at 300 nM after 4 days by ELISA; assay type: functional
[24] = Induction of human HUES8 cell differentiation into pancreatic progenitor cell assessed as FOXA2 expression in cells pregrown in medium containing Wnt, activin, FGF10, KAAD-cyclopamine and retinoic acid at 300 nM after 4 days by immunocytochemistry relative to control; assay type: functional
[25] = Inhibition of PKC signaling in human HUES8 cells assessed as decrease in Pdx1-expressing cells at 1 uM after 4 days cells pregrown in medium with Wnt3a, activin A, FGF10, KAAD-cyclopamine and retinoic acid in presence of 1 uM BISI by immunocytochemistry (reference value: 26.9+/-2.8%); assay type: cell-based
[26] = species on record: Mus musculus; experiment: Induction of MYOD expression in CD1 nude mouse mesoderm at 300 nM after 4 days by fluorescent confocal microscopy; assay type: functional
[27] = Induction of insulin production in differentiated human HUES8 cells at 300 nM after 4 days by immunocytochemistry (reference value: 0%); assay type: functional
[28] = tested on: Stomach; experiment: Induction of BARX1 expression in CD1 nude mouse stomach at 300 nM after 4 days by fluorescent confocal microscopy; assay type: functional, tissue-based
[29] = Induction of mouse AV3 cell differentiation into pancreatic lineage assessed as increase in Pdx-1 expression at 300 nM after 6 days by immunohistochemistry pretreated with 1000 ng/ml recombinant mouse Nodal for 5 days (reference value: 4.0+/-1.5%); assay type: functional
[30] = tested on: HUES8; experiment: Induction of human HUES8 cell differentiation into pancreatic progenitor cell assessed as increase in Pdx1 mRNA expression at 300 nM after 4 days by RT-PCR analysis cells pregrown in medium containing Wnt, activin, FGF10, KAAD-cyclopamine and retinoic acid; assay type: functional, cell-based
[31] = tested on: HUES8; experiment: Induction of human HUES8 cell differentiation into pancreatic progenitor cell assessed as increase in HB9 mRNA expression at 300 nM after 4 days by RT-PCR analysis pregrown in medium containing Wnt, activin, FGF10, KAAD-cyclopamine and retinoic acid; assay type: functional, cell-based
[32] = tested on: HUES8; experiment: Induction of human HUES8 cell differentiation into pancreatic progenitor cell assessed as increase in SOX9 mRNA expression at 300 nM after 4 days by RT-PCR analysis cells pregrown in medium containing Wnt, activin, FGF10, KAAD-cyclopamine and retinoic acid; assay type: functional, cell-based

In the case of `CC(C)[C@H]1C(=O)N[C@H](CO)Cc2c[nH]c3cccc(c23)N1C` [INDOLACTUM], the Activity [1] was “Active”, the Activity [2] was “Active” and the Activity [3] was 83.5%. The Activity [4] was 19.5%, the Activity [5] was “Active” and the Activity [6] was “inactive”. For the same compound, the Activity [7] was 5.3%, the Activity [8] was 3.6% and the Activity [9] was “Active”. For the same compound, the Activity [10] was “Active”, the Activity [11] was “inactive” and the Activity [12] was “Active”. The Activity [13] was “Active”, the Activity [14] was “inactive” and the Activity [15] was 21.5%. For the same compound, the Activity [16] was “Non-toxic”, the Activity [17] was “Active” and the Activity [18] was “inactive”. For the same compound, the Activity [19] was 22.7%, the Activity [20] was “inactive” and the Activity [21] was “inactive”. For the same compound, the Activity [22] was “Active”, the Activity [23] was “Active” and the Activity [24] was 99.5%. For the same compound, the inhibition [25] was 0.6%, the Activity [26] was “inactive” and the Activity [27] was 0.5%. The Activity [28] was “inactive”, the Activity [29] was 50% and the Activity [30] was “Active”. For the same compound, the Activity [31] was “Active” and the Activity [32] was “Active”.
